We go through 2 substances from patent US20120237535A1, “Therapeutic Compositions For The Treatment of HPV-Induced Diseases” (priority 2009, published 2012).

The test system of series [1] is bone marrow-derived dendritic cells. The series can be described thus: Maturation of bone marrow-derived dendritic cells, maturation markers by flow cytometry. Type of series: cell-based, mouse. Particulars: BMDC incubated with 500 nM. Here is the method:
FIG. 2: Activation of bone marrow-derived dendritic cell maturation by the EDAHPV-E7 fusion protein. Bone marrow-derived dendritic cells were incubated for 48 hours with EDA-HPVE7 (500 nM), with peptide E7(49-57) (500 nM), with LPS (1 μg/ml) (positive control) or with culture medium (Control Neg). Cells were then harvested and analyzed by flow cytometry for the expression of the H-2b molecule or the maturation markers CD54 and CD86 (RFU: Relative fluorescence units).
Bone marrow (BM)-derived dendritic cells were generated from mouse femur marrow cell cultures. After lysing erythrocytes with ACK lysing buffer, bone marrow cell were washed and subsequently depleted of lymphocytes and granulocytes by incubation with a mixture of antibodies against CD4 (GK1; ATCC, Manassas, Va.), CD8 (53.6.72; ATCC), Ly-6G/Gr1 (BD-Pharmingen; San Diego, Calif.) and CD45R/B220 (BD-Pharmingen) followed by rabbit complement. […] After 24 h of culture, supernatants were harvested and IL-12 (p70) and TNF-α were measured by ELISA (BD-Pharmingen), according to manufacturer's instructions. Expression of DC maturation markers was measured by flow cytometry. […] After this initial incubation, cells were stained with the primary antibodies at 4° C. for 15 min, washed and acquired on FACSscan cytometer (BD Biosciences, San Diego, Calif.) and analyzed using Cell Quest software (BD Biosciences). […]

For series [2] the test system is unchanged. The series is described as follows: IL-12 production by bone marrow-derived dendritic cells (ELISA). Type of series: cell-based, mouse. The following applies: 500 nM; ELISA of culture supernatant. How it is done: (§1) FIG. 3: EDA-HPV-E7 fusion protein induces the production of IL-12 by bone marrow-derived dendritic cells or the production of TNF-α by the human monocyte cell line THP-1. (A) Bone marrow-derived dendritic cells were incubated for […] with EDA-HPVE7 (500 nM), with peptide E7(49-57) (500 nM), with LPS (1 μg/ml) (positive control) or with culture medium (negative control). 24 hours later, the culture supernatant was harvested and the IL-12 released to the supernatant was measured by ELISA. (B) THP-1 cells were incubated for 15 hours with EDA-HPVE7 (500 nM), with peptide E7(49-57) (500 nM), with LPS (1 μg/ml) or with culture medium (negative control). After culture, the supernatants were harvested and the released TNF-α was measured by ELISA.
Bone marrow (BM)-derived dendritic cells were generated from mouse femur marrow cell cultures. […] After 24 h of culture, supernatants were harvested and IL-12 (p70) and TNF-α were measured by ELISA (BD-Pharmingen), according to manufacturer's instructions. Expression of DC maturation markers was measured by flow cytometry. […] After this initial incubation, cells were stained with the primary antibodies at 4° C. for 15 min, washed and acquired on FACSscan cytometer (BD Biosciences, San Diego, Calif.) and analyzed using Cell Quest software (BD Biosciences). […]

The test system of series [3] is human monocyte cell line THP-1. The series is described as follows: In vitro monocyte activation, TNF-α released by THP-1 (ELISA). Type of series: cell-based. The following applies: 500 nM, 15 hours. How it is done:
as §1
THP-1 cells were plated at 1×10^6 cells/well and cultured overnight at 37° C. and 5% CO2 in complete medium for stabilization of the culture. Different concentrations of the indicated antigens were added to the cultures and after 15 hour of incubation, culture supernatants were harvested. The concentration of human TNF-α released to the medium by the THP-1 cell line was quantified using a commercial ELISA assay (BD Pharmingen), according to manufacturer's instructions.
Therefore, it was assayed if the recombinant protein EDA-HPV-E7 was also able to induce maturation of BMDC in vitro.
In general terms: An ELISA detects its analyte on a solid surface through an enzyme-linked reagent.

Series [4] relates to EL4 cells pulsed with DTc peptide. The series is described as follows: In vivo induction of CTL by immunization, chromium release assay. Also on record: species or system C57BL/6 mice. Particulars: 2 nmol i.v. in PBS, no adjuvant; spleen cells day 7, cultured 5 days; compared with peptide DTc/E7(49-57). Here is the method:
FIG. 4: In vivo induction of CTL by immunization with EDA-HPV-E7 protein or with the DTc/E7(49-57) peptide in PBS. (A) Mice were immunized i.v with 2 nmol EDA-HPV-E7 or with the DTc/E7(49-57) peptide. Seven days alter immunization, the mice were sacrificed and spleen cells were cultured in the presence or absence of DTc peptide for 5 days. CTL activity was measured using a conventional chromium release assay using EL4 cells radio labeled and pulsed with DTc peptide as target cells in the splenocytes cultures obtained from the mice immunized with the protein EDA-HPV-E7 (closed circles) ◯ with the peptide DTc/E7 (49-57) (open circles) (On the graphic, the absolute values are shown, said values are calculated by subtracting the value of lysis obtained without peptide from the value obtained in the presence of peptide). […]
It was assayed if mice immunized with the EDA-HPVE7 fusion protein developed HPVE7-specific T cell responses. […] CTL activity was measured using a conventional chromium release assay using radio labeled EL4 cells pulsed with DTc peptide or without peptide as target cells. (FIG. 4A) (On the graphic, the absolute values are shown, said values are calculated subtracting the value of lysis obtained without peptide from the value obtained in the presence of peptide). […]

Series [5] deals with HPVE7-specific T cell responses. The series is described as follows: IFN-γ producing cells by ELISPOT in splenocytes of immunized mice. Type of series: in vivo, C57BL/6 mice. The following applies: 2 nmol i.v. in PBS, compared with E7(49-57) peptide.
The test system of series [6] is TC-1 tumor cells expressing HPV16-E6 and HPV16-E7. The series can be described thus: Therapeutic efficacy against established TC-1 tumors (approximately 8 mm, treated day 25). In kind it is in vivo, C57BL/6 mice. Particulars: TC-1 s.c., treated i.v. day 25, tumors about 8 mm; for tumor growth: mean of two perpendicular diameters. Here is the method: FIG. 6: Therapeutic efficacy of the EDA-HPVE7 fusion protein combined with poly I:C (pI:C). Mice were injected with 5×10^5 TC-1 cells and 25 days later, when tumor mean diameters were approximately 8 mm, they were treated intravenously with different vaccine combinations based on EDA (A). Tumor size, presented as the average of two perpendicular diameters (millimeters), was measured at regular intervals. The number of tumor-free mice on day 100 relative to the total number of animals included and the percent surviving on day 100 are indicated for each set of experiments. The p-value (*p<0.05) determined by the likelihood ratio test comparing tumor growth in the EDA-E7/pI:C treated group with tumor growth in the p:IC-treated group is indicated. The mice were sacrificed when the tumor diameters reached 20 mm or when necessary due to the sanitary status of the animals. (B) Survival curves from the immunized mice with the indicated immunogens are indicated (p values are indicated ((*p<0.05)). Pooled data of two independent experiments are shown.
THP1 cells (American Type Culture Collection ATCC, Manassas, Va.) were used for in vitro assays of monocyte activation by EDA derived fusion proteins. TC-1, tumor cells expressing HPV16-E6 and HPV16-E7 proteins derived from primary mouse lung epithelial cells, were obtained from the American Type Culture Collection (LGC Promochem, Molsheim, France). Cells were maintained in RPMI 1640 with GlutaMAX supplemented with 10% heat-inactivated fetal calf serum, 100 units/ml penicillin, 100 μg/ml streptomycin, 0.4 mg/ml geneticin and 5×10-5 mol/l 2-mercaptoethanol (Life Technologies, Cergy-Pontoise, France). 5×10^5 TC-1 cells were injected into the shaved back (left side) of C57BL/6 mice in 200 μL PBS. Tumor size, presented as the average of two perpendicular diameters (millimeters), was measured at regular intervals.
Monolix software (http://www.monolix.org/) was used for analysis of tumor growth data with non-linear mixed effect models. Mean diameters of tumors over time were fitted using the model described in equation 1.1 and treatments were compared using the likelihood ratio test.
Kaplan-Meier plots were used to analyze survival. Prism software (GraphPad Software, Inc. San Diego, USA) was used to determine the significance of differences in survival curves with a log rank test. The results of the in vivo killing analysis were analyzed by ANOVA followed by Dunnett's Multiple Comparison test. p values less than 0.05 were considered to be statistically significant.
To better evaluate the potency of EDA-HPVE7 as an antigen delivery system and as a vaccine, the therapeutic efficacy of this fusion protein was compared with that of the E7(49-57) peptide, both supplemented with TLR ligand pI:C. […]

Regarding “EDA-HPVE7: recombinant fusion protein: amino acids 1-29 of HPV-E7 at N-terminus of fibronectin EDA, amino acids 43-98 at C-terminus, six histidine residues”, in series [1], the “expression of the maturation marker CD54” value is reported as “able to upregulate expression” and the “expression of the maturation marker IAb” value is “able to upregulate expression”. Further, the “production of IL-12 cytokine by BMDC” value in series [2] was “able to strongly stimulate the production”. In addition, the “production of TNF-α cytokine by THP-1” value in series [3] is listed as “able to induce the production”. Moreover, in series [4], the “CTL activity against target cells pulsed with the cytotoxic T cell epitope E7” value is on record as “higher levels of CTL activity”. For the same substance, the “number of IFN-γ producing spots specific for E7(49-57)” value in series [5] is “higher number of IFN-γ producing spots”. Moreover, the “number of IFN-γ producing spots specific for TC1 cells” value in series [5] (irradiated TC1 cells) is listed as “higher number of IFN-γ producing spots”. Besides, in series [6], the “tumor eradication (in words)” value is on record as “unable to eradicate the tumors” and the tumor growth entry is recorded as “a delay in tumor growth was observed”.

For the substance “Polyinosinic-polycytidylic acid [pI:C, reference compound]”, the survival result in series [6] (Kaplan-Meier, log rank test) is “slight, statistically non-significant prolongation of survival”. The tumor growth result in series [6] was “followed the same tumor growth kinetics”.
